From patent US10165777B2, “Substituted pyrazolylpyrazole derivative and use of same as herbicide” (KYOYU AGRI CO., LTD., priority 2015, dated 2019)

Key:
Format in all cases: in vivo
Digitaria ciliaris [1] = assay: Weed foliar treatment test (Test 4, 4.0 to 5.0 leaf stage); conditions: 10 g a.i./10 a; foliar spray at 4.0 to 5.0 leaf stage of Digitaria ciliaris (plant height 10 cm to 15 cm); 20 days
Protocol: (§1) Field soil was filled into a 1/4500 are pot followed by seeding with Digitaria ciliaris and Galinsoga parviflora, covering with soil and cultivating in a glass greenhouse at an average atmospheric temperature of 25° C.
(§2) Wettable powders of Target Compound (I) shown in Table 1 prepared in compliance with the preparation examples were diluted with water to the prescribed amount of chemical and uniformly sprayed onto the weeds using 100 liters of sprayed water per 10 are when Digitaria ciliaris had grown to the 4.0 to 5.0 leaf stage (plant height: 10 cm to 15 cm).
(§3) After treating for 20 days in a glass greenhouse at an average atmospheric temperature of 25° C., the herbicidal efficacy thereof was investigated.
(§4) Evaluation of herbicidal efficacy was carried out in the same manner as the above-mentioned Test Example 1.

Galinsoga parviflora = assay: as above; conditions: 10 g a.i./10 a; foliar spray at 4.0 to 5.0 leaf stage of Digitaria ciliaris; 20 days
Protocol: as §1, §2, §3, §4

Amaranthus retroflexus [2] = assay: Weed foliar treatment test (Test 3, 1.0 to 2.0 leaf stage); conditions: foliar spray at 1.0 to 2.0 leaf stage of Digitaria ciliaris, 3 weeks
Protocol: (§5) Soil was filled into a 1/6000 are pot followed by seeding with Digitaria ciliaris, Chenopodium album and Amaranthus retroflexus, covering with soil, and cultivating in a glass greenhouse at an average atmospheric temperature of 25° C. Wettable powders of Target Compound (I) shown in Table 1 prepared in compliance with the preparation examples were diluted with water to the prescribed amount of chemical and uniformly sprayed onto the weeds using 150 liters of sprayed water per 10 are when Digitaria ciliaris had grown to the 1.0 to 2.0 leaf stage. After treating for 3 weeks in a glass greenhouse at an average atmospheric temperature of 25° C., the herbicidal efficacy thereof was investigated. Evaluation of herbicidal efficacy was carried out in the same manner as the above-mentioned Test Example 1.

Chenopodium album [3] = assay: as above; conditions: foliar spray at 1.0 to 2.0 leaf stage of Digitaria ciliaris, 3 weeks
Protocol: as §5

Digitaria ciliaris [4] = assay: as above; conditions: foliar spray at 1.0 to 2.0 leaf stage of Digitaria ciliaris, 3 weeks
Protocol: as §5

Echinochloa crus-galli = assay: Paddy herbicidal activity test; conditions: irrigated pot, treated at 3.5 leaf stage of Echinochloa crus-galli, 30 days
Protocol: (§6) 1. Paddy Herbicidal Activity Test Rice paddy soil was filled into a 1/10000 are pot followed by the addition of suitable amounts of water and chemical fertilizer, kneading, seeding with Echinochloa crus-galli, Monochoria vaginalis and Scirpus juncoides and maintaining in an irrigated state at a water depth of 3 cm. Wettable powders of Target Compound (I) shown in Table 1 prepared in compliance with the preparation examples were diluted with a suitable amount of water, rice plants in the 2.0 leaf stage were transplanted during 3.5 leaf stage of Echinochloa crus-galli, and treated by dropping in chemical in the prescribed amount per 10 are using a pipette. After treating for 30 days in a glass greenhouse at an average atmospheric temperature of 30° C., the herbicidal efficacy thereof was investigated. Evaluation of herbicidal efficacy was carried out by comparing growth inhibition rate (%) with an untreated group, while evaluation of phytotoxicity was carried out by comparing growth inhibition rate (%) with the state of a complete eradication group, and were evaluated at 11 levels indicated below.

Monochoria vaginalis = assay: Paddy herbicidal activity test; conditions: irrigated pot, 30 days
Protocol: as §6

Scirpus juncoides = assay: Paddy herbicidal activity test; conditions: irrigated pot, 30 days
Protocol: as §6

Oryza sativa = assay: Paddy herbicidal activity test, phytotoxicity to transplanted rice; conditions: rice transplanted in 2.0 leaf stage, 30 days
Protocol: as §6

Amaranthus retroflexus [5] = assay: Farming soil treatment test; conditions: soil surface spray prior to weed growth, 30 days
Protocol: (§7) Field soil was filled into a 1/6000 are pot followed by seeding with Digitaria ciliaris, Chenopodium album and Amaranthus retroflexus and covering with soil. Wettable powders of compounds of formula (I) shown in Table 1 prepared in compliance with the preparation examples were diluted with water to the prescribed amount of chemical and uniformly sprayed onto each soil surface layer using 100 liters of sprayed water per 10 are prior to weed growth following seeding. After treating for 30 days in a glass greenhouse at an average atmospheric temperature of 30° C., the herbicidal efficacy thereof was investigated. Evaluation of herbicidal efficacy was carried out in the same manner as the above-mentioned Test Example 1.

Chenopodium album [6] = assay: Farming soil treatment test; conditions: soil surface spray prior to weed growth, 30 days
Protocol: as §7

Digitaria ciliaris [7] = assay: Farming soil treatment test; conditions: soil surface spray prior to weed growth, 30 days
Protocol: as §7

SMILES: CC(=Nc1c(C#N)cnn1-c1nn2c(c1Cl)CCCC2)c1cnccn1 [Compound 27]
- herbicidal efficacy, Digitaria ciliaris (Digitaria ciliaris [1]): 10 (100%)
- herbicidal efficacy, Galinsoga parviflora (Galinsoga parviflora): 10 (100%)

SMILES: N#Cc1cnn(-c2nn3c(c2Cl)CCCC3)c1N=C1CCCC1 [Compound 8]
- herbicidal efficacy, Digitaria ciliaris (Digitaria ciliaris [1]): 10 (100%)
- herbicidal efficacy, Galinsoga parviflora (Galinsoga parviflora): 10 (100%)

SMILES: N#Cc1cnn(-c2nn3c(c2Cl)CCCC3)c1N=Cc1ccccc1F [Compound 13]
- herbicidal efficacy, Digitaria ciliaris (Digitaria ciliaris [1]): 10 (100%)
- herbicidal efficacy, Galinsoga parviflora (Galinsoga parviflora): 10 (100%)

SMILES: N#Cc1cnn(-c2nn3c(c2Cl)CCCC3)c1N=Cc1ccc(Cl)cc1 [Compound 20]
- herbicidal efficacy, Digitaria ciliaris (Digitaria ciliaris [1]): 10 (100%)
- herbicidal efficacy, Galinsoga parviflora (Galinsoga parviflora): 10 (100%)

SMILES: N#Cc1cnn(-c2nn3c(c2Cl)CCCC3)c1N=Cc1ccccc1OC(F)F [Compound 12]
- herbicidal efficacy, Digitaria ciliaris (Digitaria ciliaris [1]): 10 (100%)
- herbicidal efficacy, Galinsoga parviflora (Galinsoga parviflora): 10 (100%)

SMILES: N#Cc1cnn(-c2nn3c(c2Cl)CCCC3)c1N=Cc1ccsc1 [Compound 31]
- herbicidal efficacy, Digitaria ciliaris (Digitaria ciliaris [1]): 10 (100%)
- herbicidal efficacy, Galinsoga parviflora (Galinsoga parviflora): 10 (100%)

SMILES: CCOC=Nc1c(C#N)cnn1-c1nn2c(c1Cl)CCCC2 [Compound 34]
- herbicidal efficacy, Digitaria ciliaris (Digitaria ciliaris [1]): 9 (90% to less than 100%)
- herbicidal efficacy, Galinsoga parviflora (Galinsoga parviflora): 10 (100%)

SMILES: CC(=Nc1c(C#N)cnn1-c1nn2c(c1Cl)CCCC2)c1ccc[nH]1 [Compound 29]
- herbicidal efficacy, Amaranthus retroflexus (Amaranthus retroflexus [2]; 5 g a.i./10 a): 9 (90% to less than 100%)
- herbicidal efficacy, Amaranthus retroflexus (Amaranthus retroflexus [2]; 10 g a.i./10 a): 10 (100%)
- herbicidal efficacy, Chenopodium album (Chenopodium album [3]; 5 g a.i./10 a): 10 (100%)
- herbicidal efficacy, Chenopodium album (Chenopodium album [3]; 10 g a.i./10 a): 10 (100%)
- herbicidal efficacy, Digitaria ciliaris (Digitaria ciliaris [4]; 5 g a.i./10 a): 9 (90% to less than 100%)
- herbicidal efficacy, Digitaria ciliaris (Digitaria ciliaris [4]; 10 g a.i./10 a): 10 (100%)
- herbicidal efficacy, Digitaria ciliaris (Digitaria ciliaris [1]): 10 (100%)
- herbicidal efficacy, Galinsoga parviflora (Galinsoga parviflora): 10 (100%)

SMILES: CCCCOC=Nc1c(C#N)cnn1-c1nn2c(c1Cl)CCCC2 [Compound 37]
- herbicidal efficacy, Digitaria ciliaris (Digitaria ciliaris [1]): 10 (100%)
- herbicidal efficacy, Galinsoga parviflora (Galinsoga parviflora): 10 (100%)

SMILES: N#Cc1cnn(-c2nn3c(c2Cl)CCCC3)c1N=Cc1cccc(Cl)c1 [Compound 17]
- herbicidal efficacy, Digitaria ciliaris (Digitaria ciliaris [1]): 10 (100%)
- herbicidal efficacy, Galinsoga parviflora (Galinsoga parviflora): 10 (100%)

SMILES: CC(C)OC=Nc1c(C#N)cnn1-c1nn2c(c1Cl)CCCC2 [Compound 36]
- herbicidal efficacy, Digitaria ciliaris (Digitaria ciliaris [1]): 10 (100%)
- herbicidal efficacy, Galinsoga parviflora (Galinsoga parviflora): 10 (100%)

SMILES: N#Cc1cnn(-c2nn3c(c2Cl)CCCC3)c1N=Cc1ccc[nH]1 [Compound 28]
- herbicidal efficacy, Digitaria ciliaris (Digitaria ciliaris [1]): 10 (100%)
- herbicidal efficacy, Galinsoga parviflora (Galinsoga parviflora): 10 (100%)

SMILES: N#Cc1cnn(-c2nn3c(c2Cl)CCCC3)c1N=CC1CCCCC1 [Compound 1, 1-(3-chloro-4,5,6,7-tetrahydropyrazolo[1,5-a]pyridin-2-yl)-5-(cyclohexylmethyleneamino)pyrazole-4-carbonitrile]
- herbicidal efficacy, Echinochloa crus-galli (Echinochloa crus-galli; 1 g a.i./10 a): 10 (100%)
- herbicidal efficacy, Echinochloa crus-galli (Echinochloa crus-galli; 5 g a.i./10 a): 10 (100%)
- herbicidal efficacy, Monochoria vaginalis (Monochoria vaginalis; 1 g a.i./10 a): 9 (90% to less than 100%)
- herbicidal efficacy, Monochoria vaginalis (Monochoria vaginalis; 5 g a.i./10 a): 10 (100%)
- herbicidal efficacy, Scirpus juncoides (Scirpus juncoides; 1 g a.i./10 a): 9 (90% to less than 100%)
- herbicidal efficacy, Scirpus juncoides (Scirpus juncoides; 5 g a.i./10 a): 10 (100%)
- phytotoxicity, Oryza sativa (Oryza sativa; 1 g a.i./10 a): 0 (0% to less than 10% (growth inhibition rate))
- phytotoxicity, Oryza sativa (Oryza sativa; 5 g a.i./10 a): 0 (0% to less than 10% (growth inhibition rate))
- herbicidal efficacy, Amaranthus retroflexus (Amaranthus retroflexus [5]; 5 g a.i./10 a): 10 (100%)
- herbicidal efficacy, Amaranthus retroflexus (Amaranthus retroflexus [5]; 10 g a.i./10 a): 10 (100%)
- herbicidal efficacy, Chenopodium album (Chenopodium album [6]; 5 g a.i./10 a): 9 (90% to less than 100%)
- herbicidal efficacy, Chenopodium album (Chenopodium album [6]; 10 g a.i./10 a): 10 (100%)
- herbicidal efficacy, Digitaria ciliaris (Digitaria ciliaris [7]; 5 g a.i./10 a): 9 (90% to less than 100%)
- herbicidal efficacy, Digitaria ciliaris (Digitaria ciliaris [7]; 10 g a.i./10 a): 9 (90% to less than 100%)
- herbicidal efficacy, Amaranthus retroflexus (Amaranthus retroflexus [2]; 5 g a.i./10 a): 10 (100%)
- herbicidal efficacy, Amaranthus retroflexus (Amaranthus retroflexus [2]; 10 g a.i./10 a): 10 (100%)
- herbicidal efficacy, Chenopodium album (Chenopodium album [3]; 5 g a.i./10 a): 10 (100%)
- herbicidal efficacy, Chenopodium album (Chenopodium album [3]; 10 g a.i./10 a): 10 (100%)
- herbicidal efficacy, Digitaria ciliaris (Digitaria ciliaris [4]; 5 g a.i./10 a): 10 (100%)
- herbicidal efficacy, Digitaria ciliaris (Digitaria ciliaris [4]; 10 g a.i./10 a): 10 (100%)

SMILES: CC(=Nc1c(C#N)cnn1-c1nn2c(c1Cl)CCCC2)c1cccnc1 [Compound 25]
- herbicidal efficacy, Digitaria ciliaris (Digitaria ciliaris [1]): 10 (100%)
- herbicidal efficacy, Galinsoga parviflora (Galinsoga parviflora): 10 (100%)

SMILES: N#Cc1cnn(-c2nn3c(c2Cl)CCCC3)c1N=Cc1ccc(C(F)(F)F)cc1 [Compound 19]
- herbicidal efficacy, Digitaria ciliaris (Digitaria ciliaris [1]): 10 (100%)
- herbicidal efficacy, Galinsoga parviflora (Galinsoga parviflora): 10 (100%)

SMILES: CC(=Nc1c(C#N)cnn1-c1nn2c(c1Cl)CCCC2)c1ccccn1 [Compound 24]
- herbicidal efficacy, Digitaria ciliaris (Digitaria ciliaris [1]): 10 (100%)
- herbicidal efficacy, Galinsoga parviflora (Galinsoga parviflora): 10 (100%)

SMILES: N#Cc1cnn(-c2nn3c(c2Cl)CCCC3)c1N=Cc1ccccn1 [Compound 21]
- herbicidal efficacy, Digitaria ciliaris (Digitaria ciliaris [1]): 10 (100%)
- herbicidal efficacy, Galinsoga parviflora (Galinsoga parviflora): 10 (100%)

SMILES: N#Cc1cnn(-c2nn3c(c2Cl)CCCC3)c1N=Cc1ccoc1 [Compound 32]
- herbicidal efficacy, Digitaria ciliaris (Digitaria ciliaris [1]): 10 (100%)
- herbicidal efficacy, Galinsoga parviflora (Galinsoga parviflora): 10 (100%)

SMILES: Cc1ccc(C=Nc2c(C#N)cnn2-c2nn3c(c2Cl)CCCC3)cc1 [Compound 18]
- herbicidal efficacy, Digitaria ciliaris (Digitaria ciliaris [1]): 10 (100%)
- herbicidal efficacy, Galinsoga parviflora (Galinsoga parviflora): 10 (100%)

SMILES: N#Cc1cnn(-c2nn3c(c2Cl)CCCC3)c1N=Cc1cccnc1 [Compound 22]
- herbicidal efficacy, Echinochloa crus-galli (Echinochloa crus-galli; 1 g a.i./10 a): 10 (100%)
- herbicidal efficacy, Echinochloa crus-galli (Echinochloa crus-galli; 5 g a.i./10 a): 10 (100%)
- herbicidal efficacy, Monochoria vaginalis (Monochoria vaginalis; 1 g a.i./10 a): 10 (100%)
- herbicidal efficacy, Monochoria vaginalis (Monochoria vaginalis; 5 g a.i./10 a): 10 (100%)
- herbicidal efficacy, Scirpus juncoides (Scirpus juncoides; 1 g a.i./10 a): 10 (100%)
- herbicidal efficacy, Scirpus juncoides (Scirpus juncoides; 5 g a.i./10 a): 10 (100%)
- phytotoxicity, Oryza sativa (Oryza sativa; 1 g a.i./10 a): 0 (0% to less than 10% (growth inhibition rate))
- phytotoxicity, Oryza sativa (Oryza sativa; 5 g a.i./10 a): 1 (10% to less than 20%)
- herbicidal efficacy, Amaranthus retroflexus (Amaranthus retroflexus [5]; 5 g a.i./10 a): 10 (100%)
- herbicidal efficacy, Amaranthus retroflexus (Amaranthus retroflexus [5]; 10 g a.i./10 a): 10 (100%)
- herbicidal efficacy, Chenopodium album (Chenopodium album [6]; 5 g a.i./10 a): 9 (90% to less than 100%)
- herbicidal efficacy, Chenopodium album (Chenopodium album [6]; 10 g a.i./10 a): 10 (100%)
- herbicidal efficacy, Digitaria ciliaris (Digitaria ciliaris [7]; 5 g a.i./10 a): 9 (90% to less than 100%)
- herbicidal efficacy, Digitaria ciliaris (Digitaria ciliaris [7]; 10 g a.i./10 a): 9 (90% to less than 100%)
- herbicidal efficacy, Digitaria ciliaris (Digitaria ciliaris [1]): 9 (90% to less than 100%)
- herbicidal efficacy, Galinsoga parviflora (Galinsoga parviflora): 10 (100%)
